Results published in PubChem BioAssay AID330 (DTP/NCI, 2004).
Where “and” joins values, the source holds several entries; their conditions need not be identical. Equal values may be shown once. Toxic doses and inconclusive results are not listed.

Test system: P388 leukemia ip, CD2F1 mice, survival T/C
Experiment: NCI In Vivo Anticancer Drug Screen. Data for tumor model P388 Leukemia (intraperitoneal) in CD2F1 (CDF1) mice
Settings: endpoint: median survival time, higher = longer survival
How it was run: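 Mice carrying the transplanted tumor received test compound or vehicle. Survival was recorded in each group, and the value is the treated-group measurement divided by that of the vehicle-treated control group.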

[1] = dose: 50.0 mg/kg/injection, schedule: Q01DX009 (ip), vehicle: saline
[2] = dose: 100.0 mg/kg/injection, schedule: Q01DX009 (ip), vehicle: saline
[3] = dose: 200.0 mg/kg/injection, schedule: Q01DX009 (ip), vehicle: saline
[4] = dose: 400.0 mg/kg/injection, schedule: Q01DX001 (ip), vehicle: saline with Tween-80

ClCC[N+]12CC[N+](CCCl)(CC1)C2
T/C (dose: 6.25 mg/kg/injection, schedule: Q01DX006 (ip), vehicle: water): 120 % of control | T/C (dose: 6.25 mg/kg/injection, schedule: Q01DX009 (ip), vehicle: distilled water + Tween-80): 117 % of control | T/C (dose: 6.25 mg/kg/injection, schedule: Q01DX009 (ip), vehicle: water): 115 % of control [middle of 4 runs] | T/C (dose: 7.5 mg/kg/injection, schedule: Q01DX005 (iv), vehicle: clinical formulation): 105 % of control | T/C (dose: 7.5 mg/kg/injection, schedule: Q01DX005 (iv), vehicle: water): 100 % of control and 106 % of control | T/C (dose: 12.5 mg/kg/injection, schedule: Q01DX006 (ip), vehicle: water): 101 % of control | T/C (dose: 12.5 mg/kg/injection, schedule: Q01DX009 (ip), vehicle: saline): 105 % of control | T/C (dose: 12.5 mg/kg/injection, schedule: Q01DX009 (ip), vehicle: water): 100 % of control and 104 % of control and 107 % of control | T/C (dose: 15.0 mg/kg/injection, schedule: Q01DX005 (iv), vehicle: clinical formulation): 105 % of control | T/C (dose: 15.0 mg/kg/injection, schedule: Q01DX005 (iv), vehicle: water): 99 % of control and 110 % of control | T/C (dose: 15.0 mg/kg/injection, schedule: Q01DX009 (ip), vehicle: clinical formulation): 100 % of control | T/C (dose: 15.0 mg/kg/injection, schedule: Q01DX009 (ip), vehicle: water): 99 % of control and 116 % of control | T/C (dose: 20.0 mg/kg/injection, schedule: Q01DX005 (ip), vehicle: water): 106 % of control | T/C (dose: 21.08 mg/kg/injection, schedule: Q01DX009 (ip), vehicle: water): 115 % of control and 103 % of control | T/C (dose: 23.71 mg/kg/injection, schedule: Q01DX005 (iv), vehicle: clinical formulation): 105 % of control | T/C (dose: 23.71 mg/kg/injection, schedule: Q01DX005 (iv), vehicle: water): 110 % of control and 105 % of control | T/C (dose: 25.0 mg/kg/injection, schedule: Q01DX006 (ip), vehicle: water): 113 % of control | T/C (dose: 25.0 mg/kg/injection, schedule: Q01DX009 (ip), vehicle: water): 109 % of control and 115 % of control | T/C (dose: 30.0 mg/kg/injection, schedule: Q01DX001 (ip), vehicle: water): 113 % of control | T/C (dose: 30.0 mg/kg/injection, schedule: Q01DX001 (iv), vehicle: water): 109 % of control | T/C (dose: 30.0 mg/kg/injection, schedule: Q01DX005 (ip), vehicle: water): 163 % of control | T/C (dose: 30.0 mg/kg/injection, schedule: Q01DX005 (iv), vehicle: clinical formulation): 109 % of control | T/C (dose: 30.0 mg/kg/injection, schedule: Q01DX005 (iv), vehicle: water): 113 % of control | T/C (dose: 30.0 mg/kg/injection, schedule: Q01DX005 (oral), vehicle: water): 110 % of control | T/C (dose: 30.0 mg/kg/injection, schedule: Q01DX009 (ip), vehicle: clinical formulation): 100 % of control | T/C (dose: 30.0 mg/kg/injection, schedule: Q01DX009 (ip), vehicle: water): 123 % of control | T/C (dose: 30.0 mg/kg/injection, schedule: Q01DX009 (oral), vehicle: water): 120 % of control | T/C (dose: 31.61 mg/kg/injection, schedule: Q01DX009 (ip), vehicle: water): 119 % of control | T/C (dose: 35.56 mg/kg/injection, schedule: Q01DX005 (iv), vehicle: clinical formulation): 111 % of control | T/C (dose: 35.56 mg/kg/injection, schedule: Q01DX005 (iv), vehicle: water): 110 % of control and 106 % of control | T/C (dose: 40.0 mg/kg/injection, schedule: Q01DX005 (ip), vehicle: water): 114 % of control | T/C (dose: 44.0 mg/kg/injection, schedule: Q01DX009 (ip), vehicle: water): 158 % of control | T/C (dose: 47.42 mg/kg/injection, schedule: Q01DX009 (ip), vehicle: water): 160 % of control | T/C (dose: 50.0 mg/kg/injection, schedule: Q01DX006 (ip), vehicle: water): 123 % of control | T/C (dose: 50.0 mg/kg/injection, schedule: Q01DX009 (ip), vehicle: saline with Tween-80): 100 % of control | T/C [1]: 162 % of control and 180 % of control | T/C (dose: 50.0 mg/kg/injection, schedule: Q01DX009 (ip), vehicle: water): 113 % of control and 120 % of control | T/C (dose: 50.0 mg/kg/injection, schedule: Q04DX003 (ip), vehicle: distilled water + Tween-80): 124 % of control | T/C (dose: 53.34 mg/kg/injection, schedule: Q01DX005 (iv), vehicle: water): 115 % of control and 111 % of control | T/C (dose: 60.0 mg/kg/injection, schedule: Q01DX001 (ip), vehicle: water): 115 % of control | T/C (dose: 60.0 mg/kg/injection, schedule: Q01DX001 (iv), vehicle: water): 117 % of control | T/C (dose: 60.0 mg/kg/injection, schedule: Q01DX001 (oral), vehicle: water): 109 % of control | T/C (dose: 60.0 mg/kg/injection, schedule: Q01DX005 (ip), vehicle: water): 154 % of control and 170 % of control | T/C (dose: 60.0 mg/kg/injection, schedule: Q01DX005 (iv), vehicle: clinical formulation): 120 % of control | T/C (dose: 60.0 mg/kg/injection, schedule: Q01DX005 (oral), vehicle: water): 119 % of control | T/C (dose: 60.0 mg/kg/injection, schedule: Q01DX009 (ip), vehicle: water): 155 % of control | T/C (dose: 66.0 mg/kg/injection, schedule: Q01DX009 (ip), vehicle: water): 167 % of control | T/C (dose: 71.12 mg/kg/injection, schedule: Q01DX009 (ip), vehicle: clinical formulation): 173 % of control | T/C (dose: 71.12 mg/kg/injection, schedule: Q01DX009 (ip), vehicle: water): 177 % of control and 165 % of control | T/C (dose: 80.0 mg/kg/injection, schedule: Q01DX005 (iv), vehicle: clinical formulation): 122 % of control | T/C (dose: 80.0 mg/kg/injection, schedule: Q01DX005 (iv), vehicle: water): 119 % of control and 112 % of control | T/C (dose: 100.0 mg/kg/injection, schedule: Q01DX005 (ip), vehicle: water): 155 % of control | T/C (dose: 100.0 mg/kg/injection, schedule: Q01DX009 (ip), vehicle: saline with Tween-80): 189 % of control and 198 % of control and 213 % of control | T/C [2]: 153 % of control and 163 % of control and 182 % of control | T/C (dose: 100.0 mg/kg/injection, schedule: Q01DX009 (oral), vehicle: saline with Tween-80): 112 % of control | T/C (dose: 100.0 mg/kg/injection, schedule: Q04DX003 (ip), vehicle: distilled water + Tween-80): 151 % of control | T/C (dose: 100.0 mg/kg/injection, schedule: Q04DX003 (ip), vehicle: saline with Tween-80): 154 % of control | T/C (dose: 106.68 mg/kg/injection, schedule: Q01DX009 (ip), vehicle: water): 214 % of control | T/C (dose: 120.0 mg/kg/injection, schedule: Q01DX001 (oral), vehicle: water): 114 % of control | T/C (dose: 120.0 mg/kg/injection, schedule: Q01DX005 (ip), vehicle: water): 184 % of control | T/C (dose: 150.0 mg/kg/injection, schedule: Q01DX009 (ip), vehicle: water): 99 % of control | T/C (dose: 160.0 mg/kg/injection, schedule: Q01DX009 (ip), vehicle: water): 231 % of control | T/C (dose: 178.0 mg/kg/injection, schedule: Q01DX001 (ip), vehicle: saline with Tween-80): 124 % of control | T/C (dose: 200.0 mg/kg/injection, schedule: Q01DX009 (ip), vehicle: saline with Tween-80): 120 % of control and 233 % of control | T/C [3]: 234 % of control and 90 % of control | T/C (dose: 200.0 mg/kg/injection, schedule: Q01DX009 (ip), vehicle: water): 180 % of control | T/C (dose: 200.0 mg/kg/injection, schedule: Q04DX003 (ip), vehicle: distilled water + Tween-80): 171 % of control | T/C (dose: 200.0 mg/kg/injection, schedule: Q04DX003 (ip), vehicle: saline with Tween-80): 186 % of control and 190 % of control | T/C (dose: 240.0 mg/kg/injection, schedule: Q01DX001 (oral), vehicle: water): 117 % of control | T/C (dose: 240.0 mg/kg/injection, schedule: Q01DX009 (ip), vehicle: water): 87 % of control | T/C (dose: 264.0 mg/kg/injection, schedule: Q04DX003 (ip), vehicle: saline with Tween-80): 227 % of control | T/C [4]: 159 % of control

CCc1cc2c(cc1-c1csc(C/C(N)=N/O)n1)C(C)(C)CCC2(C)C
T/C [1]: 104 % of control | T/C [2]: 103 % of control | T/C [3]: 100 % of control

CC(C(=O)O)C(C)(C)c1ccccc1 (stereo not drawn)
T/C (dose: 100.0 mg/kg/injection, schedule: Q01DX001 (ip), vehicle: saline with Tween-80): 100 % of control | T/C (dose: 200.0 mg/kg/injection, schedule: Q01DX001 (ip), vehicle: saline with Tween-80): 99 % of control | T/C [4]: 105 % of control
